# Assay results reported in patent publication US20230346775A1, “CANCER TREATMENT WITH TLR AGONIST” (BIRDIE BIOPHARMACEUTICALS, INC., priority 2020, published 2023).
# How the values were obtained:
# Type in all cases: in vivo, human
# [1] = Phase 1 pharmacokinetics: Compound A free base in plasma after intravenous infusion
# Description: (§1) A treatment cycle is 21 days with 3 weekly infusions on days 1, 8, and 15.
# The Mosteller Formula was used: BSA=√height (cm)×weight (kg)/3600.
# [2] = Phase 1 safety, drug-related adverse events, Compound A monotherapy
# Description: Toxicities and adverse events are sometimes graded according to a 5-point scale. A grade 1 or mild toxicity is asymptomatic or induces only mild symptoms; may be characterized by clinical or diagnostic observations only; and intervention is not indicated. A grade 2 or moderate toxicity may impair activities of daily living (such as preparing meals, shopping, managing money, using the telephone, etc.) but only minimal, local, or non-invasive interventions are indicated. Grade 3 toxicities are medically significant but not immediately life-threatening; hospitalization or prolongation of hospitalization is indicated; activities of daily living related to self-care (such as bathing, dressing and undressing, feeding oneself, using the toilet, taking medications, and not being bedridden) may be impaired. Grade 4 toxicities are life-threatening and urgent intervention is indicated. Grade 5 toxicity produces an adverse event-related death.
# as §1
# Most common drug-related AE's were associated with immune activation.
# [3] = Plasma IP-10 induction from baseline (MSD cytokine assay); settings: human, plasma, intravenous; read-out: minimum Cmax required to induce enough IP-10 that results in clinical benefit
# Description: (§2) Pharmacodynamic analysis of Compound A included cytokine quantification and whole-blood RNA transcriptional profiling. Collected plasma samples were quantified for cytokine biomarkers implicated in inflammatory responses, immune system regulation, and other biological processes. Assays for cytokine quantification were performed by Frontage Laboratories, Inc. utilizing Meso Scale Discovery (MSD) V-PLEX and U-PLEX plates pre-coated with capture antibodies for IL-5, IL-17A, IFN-γ, IL-2, IL-6, IL-8, IL-10, IL-12p70, TNF-α, IFN-α, IFN-β, and IP-10. Plasma samples were added directly to the plate to allow the analytes in the samples to bind to the capture antibodies. Electrochemiluminiscent label (MSD SOLFO-TAG™)-conjugated detection antibodies were then added to visualize the plates by a MSD plate reader. The luminescence intensity was measured to quantify the amount of captured analytes (or cytokine levels) in each sample. […] Plasma samples were collected at Cycle 1, Cycle 3, and Cycle 6. Of the cytokines quantified, IP-10, IFN-γ, IL-6, IL-8, IL-10, and TNF-α had detectable levels. […] The greater peak cytokine level from either Cycle 1 Days 1 or 8 were selected for the analysis to be inclusive of all subjects. […] Response was defined by best overall response—immune-related partial response (irPR), immune-related stable disease (irSD) with study duration over or under 18 weeks, and unconfirmed immune-related progressive disease (uirPD). Clinical benefit was defined as either partial response (irPR) or irSD >18 weeks. […] For example, patient A dosed with dose level 2 with slower metabolism may have higher AUC and/or Cmax than patient B who was dosed with dose level 3, as a result patient A may produce higher level of IP-10 induction from baseline.
# IP-10 = assay: as above; settings: for mean IP-10 induction level from baseline: 16 patients, Cycle 1
# Description: as §2
# IFN-γ = assay: Plasma IFN-γ induction from baseline (MSD cytokine assay); settings: monotherapy, data not shown
# Description: Pharmacodynamic analysis of Compound A included cytokine quantification and whole-blood RNA transcriptional profiling.
# Collected plasma samples were quantified for cytokine biomarkers implicated in inflammatory responses, immune system regulation, and other biological processes. Assays for cytokine quantification were performed by Frontage Laboratories, Inc. utilizing Meso Scale Discovery (MSD) V-PLEX and U-PLEX plates pre-coated with capture antibodies for IL-5, IL-17A, IFN-γ, IL-2, IL-6, IL-8, IL-10, IL-12p70, TNF-α, IFN-α, IFN-β, and IP-10. Plasma samples were added directly to the plate to allow the analytes in the samples to bind to the capture antibodies. Electrochemiluminiscent label (MSD SOLFO-TAG™)-conjugated detection antibodies were then added to visualize the plates by a MSD plate reader. The luminescence intensity was measured to quantify the amount of captured analytes (or cytokine levels) in each sample.
# Plasma samples were collected at Cycle 1, Cycle 3, and Cycle 6. Of the cytokines quantified, IP-10, IFN-γ, IL-6, IL-8, IL-10, and TNF-α had detectable levels. […] The greater peak cytokine level from either Cycle 1 Days 1 or 8 were selected for the analysis to be inclusive of all subjects.
# [4] = tested on: unresectable or metastatic solid tumors; assay: Efficacy of Compound A salt monotherapy, best response by irRECIST; settings: for patients with clinical benefit (irPR or irSD>18 weeks): 16 patients
# Description: as §1
# Response was defined by best overall response—immune-related partial response (irPR), immune-related stable disease (irSD) with study duration over or under 18 weeks, and unconfirmed immune-related progressive disease (uirPD). Clinical benefit was defined as either partial response (irPR) or irSD >18 weeks. IP-10 cytokine induction levels of 32 patients evaluable for efficacy, were analyzed with respect to dosage in Cycle 1.
# [5] = Clinical benefit (RECIST 1.1) versus AUC/Cmax, Compound A monotherapy; settings: human, plasma, intravenous, Cmax of Compound A free base associated with greater likelihood of clinical benefit
# Description: (§3) Clinical benefit was defined as radiographic complete response, partial response or stable disease >18 weeks based on Response Evaluation Criteria in Solid Tumors (RECIST) version 1.1.
# advanced solid cancers [6] = assay: as above
# Description: as §3
# [7] = Clinical benefit (RECIST 1.1) versus AUC/Cmax, Compound A in combination with pembrolizumab; settings: human, combination with anti-PD-1 mAb (pembrolizumab)
# Description: as §3
# advanced solid cancers [8] = assay: as above; settings: combination with pembrolizumab
# Description: as §3
# [9] = Clinical benefit (RECIST 1.1) versus AUC/Cmax, Compound A in combination with atezolizumab; settings: human, plasma, combination with anti-PD-L1 mAb (atezolizumab)
# Description: as §3
# advanced solid cancers [10] = assay: as above; settings: combination with atezolizumab
# Description: as §3
# [11] = IP-10 induction, >5-fold increase (n = 17)
# [12] = No IP-10 induction, <5-fold increase (n = 19)
structure (smiles),measurement,setting,value
"CCOCc1nc2c(N)nc3ccccc3c2n1CC(C)(C)O [Compound A, 1-[4-amino-2-(ethoxymethyl)imidazo[4,5-c]quinolin-1-yl]-2-methylpropan-2-ol]",Compound A free base exposure versus dose,[1]; five escalating dosages 0.30-0.90 mg/m^2 intravenously,dose-dependent increase
same,half-life,"[1]; human, plasma, iv",~4 h
same,dose dependence of toxicity,[2]; 0.30-0.90 mg/m^2,no apparent dose-dependent increase in toxicity
same,"Grade 1 AE, subjects (%)",[2]; [11],4 (24%)
same,"Grade 2 AE, subjects (%)",[2]; [11],7 (41%)
same,"Grade 3 AE, subjects (%)",[2]; [11],2 (12%)
same,"No AE, subjects (%)",[2]; [11],4 (24%)
same,"Grade 1 AE, subjects (%)",[2]; [12],6 (32%)
same,"Grade 2 AE, subjects (%)",[2]; [12],5 (26%)
same,"Grade 3 AE, subjects (%)",[2]; [12],1 (5%)
same,"No AE, subjects (%)",[2]; [12],7 (37%)
same,Grade 4 or 5 adverse events,"[2]; monotherapy, 36 subjects",no Grade 4 or 5 adverse events
same,overall tolerability,"[2]; monotherapy, 36 subjects",well-tolerated
same,subjects without any drug-related AE,"[2]; monotherapy, of 36 subjects",31%
same,"subjects without any drug-related AE, number","[2]; monotherapy, of 36 subjects",11
same,Cmax,[3],≥ 9.4 ng/mL
same,mean IP-10 induction level from baseline,IP-10; high AUC group (AUC above 2.09 ng/mL*Day),27.2 fold
same,mean IP-10 induction level from baseline,IP-10; high Cmax group (Cmax above 9.4 ng/mL),31.9 fold
same,mean IP-10 induction level from baseline,IP-10; low AUC group (AUC below 2.09 ng/mL*Day),3.68 fold
same,mean IP-10 induction level from baseline,IP-10; low Cmax group (Cmax below 9.4 ng/mL),5.09 fold
same,effect on blood IP-10 levels,"IP-10; monotherapy, FIG. 2A",significantly increased
same,effect on blood IFN-γ levels,IFN-γ,significantly increased
same,patients with clinical benefit (irPR or irSD>18 weeks),[4]; high AUC group (above 2.09 ng/mL*Day),7 patients
same,patients with clinical benefit (irPR or irSD>18 weeks),[4]; high Cmax group (above 9.4 ng/mL),7 patients
same,"partial response [PR], number of subjects","[4]; irRECIST, best response",2
same,"stable disease [SD], number of subjects","[4]; irRECIST, best response",18
same,disease control rate,"[4]; irRECIST, partial response + stable disease",63%
same,patients with clinical benefit (irPR or irSD>18 weeks),[4]; low AUC group (below 2.09 ng/mL*Day),two
same,patients with clinical benefit (irPR or irSD>18 weeks),[4]; low Cmax group (below 9.4 ng/mL),two
same,progressive disease (PD) as best response,[4]; monotherapy,38%
same,"progressive disease (PD) as best response, number",[4]; monotherapy,12 subjects
same,subjects with prolonged disease control (study duration >18 weeks),[4]; monotherapy,22%
same,"subjects with prolonged disease control (study duration >18 weeks), number",[4]; monotherapy,7 subjects
same,longest study duration,[4]; one subject on monotherapy,68 weeks
same,Cmax,[5],≥ 8.38 ng/mL
same,patients with clinical benefit,"advanced solid cancers [6]; high AUC group (above 3.42 ng/mL*Day), 14 patients",50%
same,patients with clinical benefit,"advanced solid cancers [6]; high Cmax group (above 8.38 ng/mL), 15 patients",47%
same,patients with clinical benefit,"advanced solid cancers [6]; low AUC group (below 3.42 ng/mL*Day), 18 patients",11%
same,patients with clinical benefit,"advanced solid cancers [6]; low Cmax group (below 8.38 ng/mL), 17 patients",12%
same,Cmax,"[7]; in vivo, intravenous",≥ 7.65 ng/mL
same,Cmax,[7]; plasma,7.6 ng/mL
same,patients with clinical benefit,"advanced solid cancers [8]; high AUC group (above 2.19 ng/mL*Day), 15 patients",47%
same,patients with clinical benefit,"advanced solid cancers [8]; high Cmax group (above 7.65 ng/mL), 16 patients",44%
same,patients with clinical benefit,"advanced solid cancers [8]; low AUC group (below 2.19 ng/mL*Day), 11 patients",27%
same,patients with clinical benefit,"advanced solid cancers [8]; low Cmax group (below 7.65 ng/mL), 10 patients",30%
same,Cmax,[9]; intravenous,≥ 10.5 ng/mL
same,Cmax,[9],10.5 ng/mL
same,patients with clinical benefit,"advanced solid cancers [10]; high AUC group (above 2.14 ng/mL*Day), 10 patients",50%
same,patients with clinical benefit,"advanced solid cancers [10]; high Cmax group (above 10.5 ng/mL), 10 patients",40%
same,patients with clinical benefit,"advanced solid cancers [10]; low AUC group (below 2.14 ng/mL*Day), 15 patients",20%
same,patients with clinical benefit,"advanced solid cancers [10]; low Cmax group (below 10.5 ng/mL), 15 patients",27%
